We go through 1 compound from paper PMC5920098, “Identification of the allosteric P2X7 receptor antagonist [^11C]SMW139 as a PET tracer of microglial activation” (Scientific Reports, 2018).

Data set [1] is described as follows: LogDoct,7.4 by shake-flask method (1-octanol / 0.2 M phosphate buffer pH 7.4). The data set is classed as physicochemical. Particulars: mean ± SD, read-out: LogDoct,7.4 (n = 3). As for the experimental part:
The LogDoct,7.4 of analogues [^11C]1–3 and [^11C]SMW139 ([^11C]4) was determined using the shake-flask method (partitioning between 1-octanol and 0.2 M phosphate buffer (pH 7.4)). Determined LogDoct,7.4 values (Table 1) show the same trend as LogD values reported by Wilkinson et al.[10].
LogDoct,7.4 of [^11C]1–3 and [^11C]SMW139 was determined by the shake-flask method as described in the Supplementary Information.
Analytical HPLC chromatogram of [11C]SMW139 formulation (Platinum C18, MeCN/H2O/TFA 45:55:0.1, 1 […]
Determination of LogDoct,7.4
The distribution of radiolabelled compound between 1-octanol and 0.2 M phosphate buffer (pH = 7.4) was measured at room temperature. Briefly, 1 mL of a 20 MBq·mL-1 solution of radiolabelled compound in 0.2 M phosphate buffer (pH = 7.4) was mixed with 1 mL of 1-octanol for 1 min using a vortex mixer. After a settling period of 30 min, three samples of 100 μL were taken from both layers.
All samples were counted for radioactivity in a Wallac Universal Gammacounter 1282 (PerkinElmer, Waltham, MA, USA). The LogDoct,7.4 value was calculated according to LogDoct,7.4 = 10Log(Aoct/Abuffer), where Aoct and Abuffer represent average radioactivity counts of the three 1-octanol and the three […]
(1 picture or pasted object on this page, not shown here)

The target in a further data set is T1, hP2X7R (Homo sapiens, UniProt Q99572).
T1 construct: 3xFLAG (3flag); expressed in transfected cells; host or cells: rat striatum (female Wistar rats), transduced in vivo with the AAV vector rAAV_3flag-hP2X7R
T1 sequence (Q99572 1-595): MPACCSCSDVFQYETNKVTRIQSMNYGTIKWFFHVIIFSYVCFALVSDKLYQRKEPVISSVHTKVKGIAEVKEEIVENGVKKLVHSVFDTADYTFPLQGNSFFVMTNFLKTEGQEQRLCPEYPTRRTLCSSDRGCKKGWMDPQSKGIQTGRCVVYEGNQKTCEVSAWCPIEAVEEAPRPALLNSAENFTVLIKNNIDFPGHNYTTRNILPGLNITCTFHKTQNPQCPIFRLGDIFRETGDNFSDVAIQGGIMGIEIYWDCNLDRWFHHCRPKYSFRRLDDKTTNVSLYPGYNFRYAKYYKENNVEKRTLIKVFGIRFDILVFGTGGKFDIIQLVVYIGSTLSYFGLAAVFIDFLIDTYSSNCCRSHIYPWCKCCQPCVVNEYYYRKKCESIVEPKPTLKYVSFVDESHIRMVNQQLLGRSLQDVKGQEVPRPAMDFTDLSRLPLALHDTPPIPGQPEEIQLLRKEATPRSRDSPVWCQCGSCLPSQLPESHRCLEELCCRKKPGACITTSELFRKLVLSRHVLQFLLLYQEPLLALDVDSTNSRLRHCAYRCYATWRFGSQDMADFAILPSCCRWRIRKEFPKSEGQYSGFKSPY
The data set can be described thus: PET imaging in rats locally overexpressing hP2X7R in right striatum. It counts as in vivo, rat. Particulars: PET. On the procedure:
Uptake of [^11C]SMW139 was 1.5-fold higher in the right striatum compared with the contralateral striatum at 4–15 min p.i. (n = 3; Fig. 6A,B, and Supplementary Figure S5, 5 weeks after vector injection). […] (2.85 ± 0.69 vs. 2.30 ± 0.36 in contralateral striatum) throughout the remainder of the scanning time.
Female rats were injected with the hP2X7R expressing vector in the right striatum, and eGFP expressing vector in the left striatum, which is described in detail in the Supplementary Information. […] To confirm stable expression of hP2X7R during the time period in which PET scanning studies were conducted, autoradiography experiments were performed both prior to and following PET experiments. In a dedicated small animal PET scanner (nanoPET, Mediso Ltd.), 60 min dynamic PET scans were acquired immediately after intravenous administration of 16–20 MBq of [^11C]SMW139. […] 45 min prior to tracer injection. After data reconstruction (details in Supplementary Information), images were analysed using the freely available AMIDE software (version 0.9.2; http://amide.sourceforge.net). ROIs were drawn around ipsi- and contralateral striata. Results are expressed as standardised uptake values (SUVs) and error bars indicate standard deviation.
Stereotactic injection of viral vector […]
to a 10 µL Hamilton syringe. […]
dorsoventral -0.64 cm relative to bregma. […]
minutes before removing it slowly.
Rats were sacrificed for in
Dynamic PET imaging was performed using dedicated small animal NanoPET/CT and NanoPET/MR scanners (Mediso Ltd., Budapest, Hungary) which are equipped with identical PET components. […]
anaesthetised with 4% and 2% isoflurane in oxygen (1 L·min-1) for induction and maintenance, respectively. Rats were positioned on the scanner bed and their respiratory rate was monitored during the entire scan, and anaesthesia was adjusted whenever required. Dynamic PET scans were acquired immediately after intravenous (i.v.) administration of 16-20 MBq of [11C]SMW139 via the tail vein. For […]
hydroxypropyl)-β-cyclodextrin in water for injection 45 min prior to tracer injection. PET scans were acquired in list mode and rebinned into the following frame sequence: 4 × 5, 4 x 10, 2 x 30, 3x 60, 2 x 300, 1 x 600, 1 x 900 and 1 x 1200 s. Reconstruction was performed using a fully 3-dimensional reconstruction algorithm (Tera-TomoTM, Mediso Ltd.) with 4 iterations and 6 subsets, and an isotropic 0.4 mm voxel dimension. Images were analysed using the freely available AMIDE software (version 0.9.2; http://amide.sourceforge.net). 3D ellipsoid ROIs (dimensions x = 3.4 mm, y = 3.6 mm, z = 2.9 […]
mm) were drawn within ipsi- and contralateral striata. Results are expressed as standardised uptake values (SUVs) and error bars indicate standard deviation. SUV were calculated as follows, with cimg in MBq/mL, injected dose in MBq and bodyweight in kg:
An unpaired two-tailed t-test was used for statistical analysis of PET data, which was performed using […]
allowed to recover for 1 week after scanning. After 1 week of recovery following the final scan (12 weeks after stereotactic vector injection) animals were sacrificed, and brains were excised and stored […]
Extended single microdose toxicity study
A single microdose toxicity study according to EMEA guideline EMA/CPMP/ICH/286/1995 (December 2009) was performed in healthy Wistar rats at a 1000 times higher dose than the maximal dose […]
minimum specific activity of 18.5 GBq·µmol-1). Animals were allowed to acclimatise for 10 days, group-housed and in an enriched environment with food and water available ad libitum, and with a 12-hour light-dark cycle in a temperature controlled room.

For another data set, the system named is mouse P2X7R. More on the design: method as in PMID 28841278. The note with it: cited from earlier work.

For the compound `[11CH3]Oc1ccc(Cl)c(C(=O)NCC23CC4(F)CC(F)(CC(F)(C4)C2)C3)c1` [[^11C]SMW139], the logD in data set [1] amounted to 2.7 ± 0.01. The “Time of peak of ipsi- to contralateral striatum ratio after tracer injection” value on hP2X7R is reported as at most 15 min. For the same compound, the “Uptake in right (hP2X7R) striatum compared with contralateral striatum” value on hP2X7R (4–15 min p.i., n = 3, 5 weeks after vector injection) was determined as 1.5 fold. Further, the “Uptake in rAAV_3flag-hP2X7R striatum after pre-treatment with JNJ-47965567” value at hP2X7R (2 min p.i., JNJ-47965567 30 mg·kg^−1 s.c. 45 min prior to tracer, n = 3, 11 weeks after vector injection) is recorded as 2.40 ± 0.22 SUV. In addition, on hP2X7R (2 min p.i., baseline), the “Uptake in contralateral striatum” value was 2.30 ± 0.36 SUV and the “Uptake in rAAV_3flag-hP2X7R striatum” value was found to be 2.85 ± 0.69 SUV. For the same compound, in the data set with mouse P2X7R, the “Affinity lower for mouse P2X7R compared with hP2X7R” value is listed as 6 fold.
